Assay results as given in US20240294498A1, “FACTOR XIIA INHIBITORS” (Lunac Therapeutics Ltd, priority 2021, published 2024).
pKi: −log10 of the molar value.

Tests used:
Type in all cases: biochemical
FXIIa = molecular target: T1, FXIIa (Homo sapiens, UniProt P00748); test: Determination of Factor XIIa inhibition (chromogenic substrate S-2302); conditions: human FXIIa alpha, Ki category
T1 construct: FXIIa alpha
T1 sequence (P00748 373-615 limits assumed): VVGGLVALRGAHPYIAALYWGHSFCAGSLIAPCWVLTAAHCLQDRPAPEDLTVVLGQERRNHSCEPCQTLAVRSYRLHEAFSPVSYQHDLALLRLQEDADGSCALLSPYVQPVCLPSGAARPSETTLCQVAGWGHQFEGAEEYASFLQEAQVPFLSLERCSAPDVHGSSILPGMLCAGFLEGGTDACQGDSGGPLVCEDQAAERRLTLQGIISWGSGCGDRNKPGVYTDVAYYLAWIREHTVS
T1 sequence (P00748 20-372 partner limits assumed): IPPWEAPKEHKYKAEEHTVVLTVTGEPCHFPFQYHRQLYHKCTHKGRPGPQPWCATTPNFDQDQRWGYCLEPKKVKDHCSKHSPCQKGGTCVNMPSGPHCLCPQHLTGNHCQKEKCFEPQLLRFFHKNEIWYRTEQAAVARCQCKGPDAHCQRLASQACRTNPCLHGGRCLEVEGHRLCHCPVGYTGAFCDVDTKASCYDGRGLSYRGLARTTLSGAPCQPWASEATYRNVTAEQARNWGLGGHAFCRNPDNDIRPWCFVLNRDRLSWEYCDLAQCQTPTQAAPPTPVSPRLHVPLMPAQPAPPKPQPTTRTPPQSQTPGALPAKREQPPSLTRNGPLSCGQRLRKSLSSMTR
Summary of the method: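 Compound preincubated with 10 nM FXIIa for 10 min at 37° C in 50 mM Tris, 137 mM NaCl, pH 7.4, 5% DMSO, top concentration 500 μM; S-2302 added at Km. pNA release followed at 405 nm for 3 h; IC50 from initial rates, converted to Ki via Ki = IC50/(1+[S]/Km).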

FXa = FXa (Homo sapiens, UniProt P00742); test: Determination of selectivity: FXa inhibition (chromogenic substrate S2765); conditions: fold selectivity for FXIIa over FXa (human); category
Summary of the method: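 FXa (5 nM) preincubated with increasing compound (top 500 μM) for 10 mins at 37° C in 50 mM Tris, 137 mM NaCl pH 7.4, 5% DMSO, then S2765 added at its KM. Absorbance at 405 nm followed kinetically for 3 hours; IC50 from initial rates, converted to Ki by Cheng-Prusoff.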

thrombin = molecular target: T2, thrombin (Homo sapiens, UniProt P00734); test: Determination of selectivity: thrombin inhibition (chromogenic substrate GPR); conditions: fold selectivity for FXIIa over thrombin (human); category
T2 construct: FXa (5 nM) and thrombin (5 nM)
Summary of the method: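 Thrombin (5 nM) preincubated with increasing compound concentrations (top 500 μM, 5% DMSO) 10 min at 37 °C in 50 mM Tris, 137 mM NaCl pH 7.4, then GPR chromogenic substrate at its KM. pNA release read kinetically at 405 nm for 3 h at 37 °C. IC50 from initial rates, converted to Ki via Cheng–Prusoff.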

FXa, sequence (P00742 235-488 limits assumed): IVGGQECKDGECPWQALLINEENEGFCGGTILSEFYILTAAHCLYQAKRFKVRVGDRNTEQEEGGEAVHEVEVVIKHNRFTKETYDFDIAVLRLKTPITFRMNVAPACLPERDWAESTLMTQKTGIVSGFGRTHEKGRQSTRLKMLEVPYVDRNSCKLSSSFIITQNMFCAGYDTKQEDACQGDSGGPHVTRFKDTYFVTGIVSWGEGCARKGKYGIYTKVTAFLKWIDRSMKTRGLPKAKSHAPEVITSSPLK
FXa, sequence (P00742 41-179 partner limits assumed): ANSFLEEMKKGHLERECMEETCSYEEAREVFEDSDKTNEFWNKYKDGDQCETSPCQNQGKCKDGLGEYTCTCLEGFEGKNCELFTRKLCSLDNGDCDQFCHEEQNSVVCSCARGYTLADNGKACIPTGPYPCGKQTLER

SMILES	pKi (FXIIa)	FXa (human)/FXIIa alpha (human) (FXa)	Thrombin (human)/FXIIa alpha (human) (thrombin)
Cc1ccc(C[C@@H]2C[C@@H](C(=O)NCc3ccc4c(cnn4C)c3)N(C(=O)[C@@H]3NCCC[C@@H]3C(=O)N3C4CCC3CC4)C2)cc1 [Example M05804, (2S,4R)-1-((2R,3S)-3-(7-azabicyclo[2.2.1]heptane-7-carbonyl)piperidine-2-carbonyl)-N-((1-methyl-1H-indazol-5-yl)methyl)-4-(4-methylbenzyl)pyrrolidine-2-carboxamide]	6.10 to 6.70	∘∘∘	+++ (fold selectivity values greater than 100)
COc1nn(C)c2ccc(CNC(=O)[C@@H]3C[C@@H](Cc4ccc(C)cc4)CN3C(=O)[C@@H]3NCCC[C@@H]3C(=O)N3CCCC3)cc12 [Example M05810, (2S,4R)-N-((3-methoxy-1-methyl-1H-indazol-5-yl)methyl)-4-(4-methylbenzyl)-1-((2R,3S)-3-(pyrrolidine-1-carbonyl)piperidine-2-carbonyl)pyrrolidine-2-carboxamide]	5.30 to 6.10	∘∘	++ (a fold selectivity value of 10 to 100)
Cn1ncc2cc(CNC(=O)[C@@H]3C[C@@H](Cc4ccncc4)CN3C(=O)[C@@H]3NCCC[C@@H]3C(=O)N3CCCC3)ccc21 [Example M05811, (2S,4R)-N-((1-methyl-1H-indazol-5-yl)methyl)-4-(pyridin-4-ylmethyl)-1-((2R,3S)-3-(pyrrolidine-1-carbonyl)piperidine-2-carbonyl)pyrrolidine-2-carboxamide]	5.30 to 6.10	∘∘∘	++ (a fold selectivity value of 10 to 100)
Cn1ncc2cc(CNC(=O)[C@@H]3C[C@@H](Cc4cccc(C(F)(F)F)c4)CN3C(=O)[C@@H]3NCCC[C@@H]3C(=O)N3CCCC3)ccc21 [Example M05836, (2S,4R)-N-((1-methyl-1H-indazol-5-yl)methyl)-1-((2R,3S)-3-(pyrrolidine-1-carbonyl)piperidine-2-carbonyl)-4-(3-(trifluoromethyl)benzyl)pyrrolidine-2-carboxamide]	5.30 to 6.10	∘∘∘	+++ (fold selectivity values greater than 100)
Cc1ccc(C[C@@H]2C[C@@H](C(=O)NCC3CCn4c(nnc4C(F)(F)F)C3)N(C(=O)[C@@H]3NCCC[C@@H]3C(=O)N3CCCC3)C2)cc1 (stereo partly drawn) [Example M05851]	5.30 to 6.10	∘∘∘	+++ (fold selectivity values greater than 100)
Cc1ccc(C[C@@H]2C[C@@H](C(=O)NCc3ccn4c(C)nnc4c3)N(C(=O)[C@@H]3NCCC[C@@H]3C(=O)N3CCCC3)C2)cc1 [Example M05855, (2S,4R)-N-((3-methyl-[1,2,4]triazolo[4,3-a]pyridin-7-yl)methyl)-4-(4-methylbenzyl)-1-((2R,3S)-3-(pyrrolidine-1-carbonyl)piperidine-2-carbonyl)pyrrolidine-2-carboxamide]	6.10 to 6.70	∘∘∘	+++ (fold selectivity values greater than 100)

Continued, in another order:

pKi (FXIIa)	FXa (human)/FXIIa alpha (human) (FXa)	SMILES	Thrombin (human)/FXIIa alpha (human) (thrombin)
> 6.70	∘∘∘	Cc1ccc(C[C@@H]2C[C@@H](C(=O)NCc3ccc4c(c3)c(F)nn4C)N(C(=O)[C@@H]3NCCC[C@@H]3C(=O)N3CCCC3)C2)cc1 [Example M05806, (2S,4R)-N-((3-fluoro-1-methyl-1H-indazol-5-yl)methyl)-4-(4-methylbenzyl)-1-((2R,3S)-3-(pyrrolidine-1-carbonyl)piperidine-2-carbonyl)pyrrolidine-2-carboxamide]	+++ (fold selectivity values greater than 100)
6.10 to 6.70	∘∘∘	Cn1ncc2cc(CNC(=O)[C@@H]3C[C@@H](Cc4ccccc4C(F)(F)F)CN3C(=O)[C@@H]3NCCC[C@@H]3C(=O)N3CCCC3)ccc21 [Example M05809, (2S,4R)-N-((1-methyl-1H-indazol-5-yl)methyl)-1-((2R,3S)-3-(pyrrolidine-1-carbonyl)piperidine-2-carbonyl)-4-(2-(trifluoromethyl)benzyl)pyrrolidine-2-carboxamide]	+++ (fold selectivity values greater than 100)
> 6.70	∘∘∘	[2H]C([2H])([2H])n1ncc2cc(CNC(=O)[C@@H]3C[C@@H](Cc4ccc(C)cc4)CN3C(=O)[C@@H]3NCCC[C@@H]3C(=O)N3CCCC3)ccc21 [Example M05820, (2S,4R)-N-((1-(methyl-d3)-1H-indazol-5-yl)methyl)-4-(4-methylbenzyl)-1-((2R,3S)-3-(pyrrolidine-1-carbonyl)piperidine-2-carbonyl)pyrrolidine-2-carboxamide]	+++ (fold selectivity values greater than 100)
> 6.70	∘∘∘	CO[C@H]1CCN(C(=O)[C@H]2CCCN[C@H]2C(=O)N2C[C@H](Cc3ccc(C)cc3)C[C@H]2C(=O)NCc2ccc3c(cnn3C)c2)C1 [Example M05837, (2S,4R)-1-((2R,3S)-3-((S)-3-methoxypyrrolidine-1-carbonyl)piperidine-2-carbonyl)-N-((1-methyl-1H-indazol-5-yl)methyl)-4-(4-methylbenzyl)pyrrolidine-2-carboxamide]	+++ (fold selectivity values greater than 100)
> 6.70	∘∘∘	Cc1ccc(C[C@@H]2C[C@@H](C(=O)NCc3ccc4c(cnn4C)c3)N(C(=O)[C@@H]3NCCC[C@@H]3C(=O)N3CCCN(C)CC3)C2)cc1 [Example M05840, (2S,4R)-1-((2R,3S)-3-(4-methyl-1,4-diazepane-1-carbonyl)piperidine-2-carbonyl)-N-((1-methyl-1H-indazol-5-yl)methyl)-4-(4-methylbenzyl)pyrrolidine-2-carboxamide]	+++ (fold selectivity values greater than 100)
> 6.70	∘∘∘	CCO[C@H]1CCN(C(=O)[C@H]2CCCN[C@H]2C(=O)N2C[C@H](Cc3ccc(C)cc3)C[C@H]2C(=O)NCc2ccc3c(cnn3C)c2)C1 [Example M05853, (2S,4R)-1-((2R,3S)-3-((S)-3-ethoxypyrrolidine-1-carbonyl)piperidine-2-carbonyl)-N-((1-methyl-1H-indazol-5-yl)methyl)-4-(4-methylbenzyl)pyrrolidine-2-carboxamide]	+++ (fold selectivity values greater than 100)
6.10 to 6.70	∘∘∘	Cn1ncc2cc(CNC(=O)[C@@H]3C[C@@H](Cc4ccc(Cl)cc4)CN3C(=O)[C@@H]3NCCC[C@@H]3C(=O)N3CCCC3)ccc21 [Example M05854, (2S,4R)-4-(4-chlorobenzyl)-N-((1-methyl-1H-indazol-5-yl)methyl)-1-((2R,3S)-3-(pyrrolidine-1-carbonyl)piperidine-2-carbonyl)pyrrolidine-2-carboxamide]	+++ (fold selectivity values greater than 100)
> 6.70	∘∘∘	Cn1nnc2cc(CNC(=O)[C@@H]3C[C@@H](Cc4ccc(C(F)(F)F)nc4)CN3C(=O)[C@@H]3NCCC[C@@H]3C(=O)N3CCCC3)ccc21 [Example M05863, (2S,4R)-N-((1-methyl-1H-benzo[d][1,2,3]triazol-5-yl)methyl)-1-((2R,3S)-3-(pyrrolidine-1-carbonyl)piperidine-2-carbonyl)-4-((6-(trifluoromethyl)pyridin-3-yl)methyl)pyrrolidine-2-carboxamide]	+++ (fold selectivity values greater than 100)
